Results taken from patent publication EP0263214A1, “Tetrapeptide methyl ketone inhibitors of viral proteases” (priority 1986, dated 1988).
Like-named read-outs stand apart in the source and are kept apart here. * marks the point of attachment. CH2Cl = ClC*

Experiments:
[1] = system: human poliomyelitis virus type 2; type: cell-based
human rhinovirus type 1A = type: cell-based
Poliovirus type 2 = type: cell-based
rhinovirus type 1A = type: cell-based
chymotrypsin = conditions: inhibitor concentration of 600 ug/rnL; cited from earlier work
subtilisin BPN' = conditions: compared within a series of peptide chloromethyl ketones; cited from earlier work

Molecule: CC(=O)[C@H](CC(C)C)NC(=O)[C@H](C)NC(=O)CNC(=O)[C@H](Cc1ccccc1)NC(=O)OC(C)(C)C [Boc-Phe-Gly-Ala-LeuCH3, reference compound]
- activity in the viral cleavage assay [1]: failed to show activity
- activity in the viral cleavage assay (human rhinovirus type 1A): failed to show activity

Molecule: COC(=O)CCC(=O)N[C@@H](Cc1ccccc1)C(=O)NCC(=O)N[C@@H](CC(C)C)C(=O)N[C@@H](CC(C)C)C(C)=O [MeOSuc-Phe-Gly-Leu-LeuCH3]
- activity in the viral cleavage assay ([1]; 50 µg/mL): active

Molecule: CC(=O)[C@H](CC(C)C)NC(=O)[C@H](C)NC(=O)CNC(=O)[C@H](Cc1ccccc1)NC(=O)OCc1ccccc1 [Z-Phe-Gly-Ala-LeuCH3]
- activity in the viral cleavage assay ([1]; 50 µg/mL): active
- plaque reduction (Poliovirus type 2): > 90%
- plaque reduction (rhinovirus type 1A): > 90%
- cytotoxicity (HeLa cells): No cytotoxicity was observed

Molecule: Ac-Leu-Leu-PheCH3
- inhibition of chymotrypsin (chymotrypsin): no inhibition was observed

Molecule: acetyl-L-phenylalanyl-L-glycyl-L-alanyl-L-leucyl chloromethyl ketone (Ac-FGAL-CH2Cl; SMILES CC(=O)N[C@@H](Cc1ccccc1)C(=O)NCC(=O)N[C@@H](C)C(=O)N[C@@H](CC(C)C)C(=O)CCl) [Ac-Phe-Gly-Ala-LeuCH2CI]
- inhibition of subtilisin BPN' (subtilisin BPN'): fastest inhibitor
